The values below come from PubChem BioAssay (NCI).

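Interpolation was linear, between the two tested concentrations surrounding the appropriate level; five concentrations were tested over 48 hours in 96-well plates. GI50 is the concentration that inhibits growth by half. TGI marks complete inhibition of growth.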

The subject of one experiment is SN12K1 renal. The experiment in a line: NCI tumour cell line growth inhibition, 48 h.
In the next experiment the test system is P388/ADR leukemia. The experiment in a line: NCI tumour cell line growth inhibition, 48 h.

On to `O=C(O)C1(C(=O)O)CCC1.[NH2-].[NH2-].[Pt+2]`, for which, in the experiment with SN12K1 renal, the GI50 is 107 µM and the TGI was 185 µM. Also, in the experiment on P388/ADR leukemia, the GI50 is 33.3 µM and the TGI came to 218 µM.
